In publication PMC12881674, “Activation of TRPV3 channels in bladder cancer cells stimulates ATP release” (Molecular Pharmacology, 2025):

What was measured:
Type in all cases: cell-based
[1] = target: T1, human TRPM8 (Homo sapiens, UniProt Q7Z2W7); test: fluo-4 Ca2+ assay selectivity, HEK cells expressing human TRPM8; conditions: concentrations up to 50 μM
T1 construct: expressed in transfected cells; host or cells: HEK293
Excerpt: (§1) KU-19-19 (DSMZ no. ACC 395), CAL-29 (DSMZ no. ACC 515), 647-V (DSMZ no. ACC 414), RT-4 (DSMZ no. ACC 412), and RT-112 (DSMZ no. ACC 418) bladder cancer cell lines were obtained from the Leibniz Institute DSMZ (German Collection of Microorganisms and Cell Cultures). Human TRPV3 (NM_145068, purchased from OriGene) and mouse TRPV3 (NM_001371006), rat TRPV1, mouse TRPV2, mouse TRPV4, human TRPM2, human TRPM8, and human TRPA1 were stably transfected in HEK293 cells as described before.[27] […]
(§2) All fluorometric Ca^2+ assays were performed in HBS buffer at room temperature. […] For the primary compound screening and the generation of concentration-response analyses, a robotic liquid handling station (Freedom Evo 150; Tecan) with a built-in custom-made fluorescence plate imager was used. […] Fluorescence was excited using a 470-nm light-emitting diode, and emitted light was imaged through a 515-nm–long pass filter with a cooled Zyla 5.5 camera (Andor). Fluorescence was recorded and processed under the control of the μ-Manager 2.0 gamma software (https://micro-manager.org.[28]). After recording baseline fluorescence, compounds were dispensed into the wells via the liquid handling device. […] For further analysis, fluorescence signals were calculated for each well, corrected for background intensities and normalized to the initial signals. […]

[2] = target: T2, rat TRPV1 (Rattus norvegicus, UniProt O35433); test: fluo-4 Ca2+ assay selectivity, HEK cells expressing rat TRPV1; conditions: concentrations up to 50 μM
T2 construct: expressed in transfected cells; host or cells: HEK293
Excerpt: as §1, §2

[3] = target: T3, human TRPV3 (Homo sapiens, UniProt Q8NET8); test: fluo-4 fluorometric Ca2+ assay, concentration-response, HEK cells expressing human TRPV3; conditions: HEK cells expressing human TRPV3, fluo-4, room temperature, mean ± SD back-transformed from log space, n=5; read-out: EC50 for human TRPV3 activation
T3 construct: host or cells: HEK293
T3 sequence (Q8NET8 1-790): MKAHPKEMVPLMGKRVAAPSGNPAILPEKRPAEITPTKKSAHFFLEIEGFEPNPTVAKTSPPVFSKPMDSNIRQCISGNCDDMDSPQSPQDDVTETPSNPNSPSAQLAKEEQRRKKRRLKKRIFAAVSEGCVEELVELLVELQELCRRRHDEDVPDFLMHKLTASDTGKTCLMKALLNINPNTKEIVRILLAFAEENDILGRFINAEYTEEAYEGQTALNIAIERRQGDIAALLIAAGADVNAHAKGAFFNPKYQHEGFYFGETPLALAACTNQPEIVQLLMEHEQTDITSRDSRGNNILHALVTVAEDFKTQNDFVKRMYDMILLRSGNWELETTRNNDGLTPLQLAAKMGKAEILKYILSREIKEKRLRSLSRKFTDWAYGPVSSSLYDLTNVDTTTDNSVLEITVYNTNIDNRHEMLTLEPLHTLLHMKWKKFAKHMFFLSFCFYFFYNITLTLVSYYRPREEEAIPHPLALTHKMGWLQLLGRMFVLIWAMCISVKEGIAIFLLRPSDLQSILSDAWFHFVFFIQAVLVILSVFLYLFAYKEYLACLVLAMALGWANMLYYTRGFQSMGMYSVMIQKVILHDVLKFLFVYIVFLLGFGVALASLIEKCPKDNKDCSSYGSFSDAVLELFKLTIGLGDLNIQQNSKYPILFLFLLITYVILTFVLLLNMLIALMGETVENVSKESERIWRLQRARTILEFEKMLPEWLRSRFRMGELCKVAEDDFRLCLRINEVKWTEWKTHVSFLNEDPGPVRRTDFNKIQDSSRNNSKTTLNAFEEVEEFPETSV
Excerpt: as §1, §2

T1 sequence (Q7Z2W7 whole entry): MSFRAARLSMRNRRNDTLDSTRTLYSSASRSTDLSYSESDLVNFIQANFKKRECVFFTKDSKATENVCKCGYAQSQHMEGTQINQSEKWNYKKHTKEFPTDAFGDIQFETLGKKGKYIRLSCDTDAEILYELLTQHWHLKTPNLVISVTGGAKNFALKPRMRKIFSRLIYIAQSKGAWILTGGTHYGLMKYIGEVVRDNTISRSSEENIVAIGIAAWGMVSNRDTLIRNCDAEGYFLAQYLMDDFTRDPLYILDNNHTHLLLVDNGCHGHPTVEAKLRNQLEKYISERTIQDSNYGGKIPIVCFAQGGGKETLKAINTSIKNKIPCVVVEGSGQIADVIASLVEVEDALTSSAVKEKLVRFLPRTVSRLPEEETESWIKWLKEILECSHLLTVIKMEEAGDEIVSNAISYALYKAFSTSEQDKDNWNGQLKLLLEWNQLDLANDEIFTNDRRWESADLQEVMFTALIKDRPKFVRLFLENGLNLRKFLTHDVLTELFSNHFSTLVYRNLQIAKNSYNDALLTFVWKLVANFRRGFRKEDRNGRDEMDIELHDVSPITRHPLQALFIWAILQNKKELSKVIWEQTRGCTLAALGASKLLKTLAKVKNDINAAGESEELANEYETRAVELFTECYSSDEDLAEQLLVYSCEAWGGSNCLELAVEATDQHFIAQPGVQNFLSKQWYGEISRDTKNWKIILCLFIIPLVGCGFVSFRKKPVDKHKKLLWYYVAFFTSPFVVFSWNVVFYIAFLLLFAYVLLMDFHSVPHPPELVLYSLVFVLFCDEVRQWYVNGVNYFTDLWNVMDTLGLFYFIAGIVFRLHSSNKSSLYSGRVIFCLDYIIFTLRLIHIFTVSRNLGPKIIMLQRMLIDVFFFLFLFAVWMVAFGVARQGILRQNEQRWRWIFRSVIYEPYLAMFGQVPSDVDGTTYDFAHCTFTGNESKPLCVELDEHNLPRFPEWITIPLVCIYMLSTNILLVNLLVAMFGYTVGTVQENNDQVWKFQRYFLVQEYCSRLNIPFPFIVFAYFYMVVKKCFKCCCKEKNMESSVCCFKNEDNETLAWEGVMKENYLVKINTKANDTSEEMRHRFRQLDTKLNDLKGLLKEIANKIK
T2 sequence (O35433 whole entry): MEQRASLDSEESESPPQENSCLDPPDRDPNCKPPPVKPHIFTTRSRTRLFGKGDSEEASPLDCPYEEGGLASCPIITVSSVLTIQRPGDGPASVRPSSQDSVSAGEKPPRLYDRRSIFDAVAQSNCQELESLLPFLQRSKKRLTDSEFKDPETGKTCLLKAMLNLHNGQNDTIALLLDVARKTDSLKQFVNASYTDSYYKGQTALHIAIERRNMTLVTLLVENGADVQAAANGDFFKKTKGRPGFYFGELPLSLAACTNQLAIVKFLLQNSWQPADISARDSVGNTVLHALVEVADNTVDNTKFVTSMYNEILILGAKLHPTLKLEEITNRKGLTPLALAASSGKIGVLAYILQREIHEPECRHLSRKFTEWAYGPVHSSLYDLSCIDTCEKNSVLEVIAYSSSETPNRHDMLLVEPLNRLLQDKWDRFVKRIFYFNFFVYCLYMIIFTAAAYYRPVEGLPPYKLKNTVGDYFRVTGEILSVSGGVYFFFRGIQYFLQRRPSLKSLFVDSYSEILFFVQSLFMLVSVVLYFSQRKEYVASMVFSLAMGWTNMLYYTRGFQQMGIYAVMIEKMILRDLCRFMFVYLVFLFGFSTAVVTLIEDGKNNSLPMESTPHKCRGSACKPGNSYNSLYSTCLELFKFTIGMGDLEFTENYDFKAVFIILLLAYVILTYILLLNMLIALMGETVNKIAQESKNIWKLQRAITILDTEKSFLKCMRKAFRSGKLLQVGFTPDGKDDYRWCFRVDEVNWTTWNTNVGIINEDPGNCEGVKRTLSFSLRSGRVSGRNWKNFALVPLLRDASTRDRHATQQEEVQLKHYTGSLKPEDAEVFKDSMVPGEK

- effect on TRPM8 [1]: no effect
- effect on TRPV1 [2]: only a minor activation
- EC50 [3]: 7.2 ± 1.4 µM
Compound: COC(=O)C12CN(Cc3ccccc3)CC1(C(=O)OC)CN(Cc1ccccc1)C2 (stereo not drawn) [AV3-1]
